Patent US20060046966A1, “Antipicornaviral compounds and compositions, their pharmaceutical uses, and materials for their synthesis” (Agouron Pharmaceuticals, Inc., priority 1998, published 2006)
Where two headings read alike, the source gives them in different places.

Key:
[1] = molecular target: T1, rhinovirus 3C protease from HRV serotype-14 (Human rhinovirus 14, UniProt P03303); assay: Inhibition of rhinovirus 3C protease (FRET assay), serotype 14; type: biochemical; settings: HRV serotype-14 3C protease; progress curves in enzyme start experiments; read-out: Protease Inhibition kobs/[I]
T1 construct: Recombinant rhinovirus 3C proteases; made in house
T1 sequence (P03303 1538-1719): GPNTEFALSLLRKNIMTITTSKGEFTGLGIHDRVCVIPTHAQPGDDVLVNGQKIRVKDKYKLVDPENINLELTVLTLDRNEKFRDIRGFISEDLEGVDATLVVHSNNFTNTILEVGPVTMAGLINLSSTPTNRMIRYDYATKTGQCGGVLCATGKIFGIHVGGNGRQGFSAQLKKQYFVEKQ
Experimental: (§1) Stock solutions (50 mM, in DMSO) of various compounds were prepared; dilutions were in the same solvent. Recombinant rhinovirus 3C proteases (see Birch et al., “Purification of recombinant human rhinovirus 14 3C protease expressed in Escherichia coli,” Protein Expr. Pur. 1995, 6(5), 609-618) from serotypes 14, 16, and 2 were prepared by the following standard chromatographic procedures: (1) ion exchange using Q Sepharose Fast Flow from Pharmacia; (2) affinity chromatography using Affi-Gel Blue from Biorad; and (3) sizing using Sephadex G-100 from Pharmacia. Each assay sample contained 2% DMSO, 50 mM tris pH 7.6, 1 mM EDTA, a test compound at the indicated concentration, approximately 1 μM substrate, and 50-100 nM protease. The kobs/I values were obtained from reactions initiated by addition of enzyme rather than substrate. RVP activity was measured in the fluorescence resonance energy transfer assay. The substrate was (N-terminal) DABCYL-(Gly-Arg-Ala-Val-Phe-Gln-Gly-Pro-Val-Gly)-EDANS. In the uncleaved peptide, the EDANS fluorescence was quenched by the proximal DABCYL moiety. When the peptide was cleaved, the quenching was relieved, and activity was measured as an increase in fluorescence signal. In Table 1, all data are for rhinovirus 3C protease from HRV serotype-14 (produced from the infectious cDNA clone constructed by Dr. Robert Rueckert, Institute for Molecular Virology, University of Wisconsin, Madison, Wis.). […] The data in the column designated kobs/[I] were measured from progress curves in enzyme start experiments.

[2] = tested on: HRV-14; assay: Antirhinoviral H1-HeLa cell culture assay, HRV-14; type: cell-based, human rhinovirus; settings: Rhinovirus B, HRV14, H1-HeLa, HRV serotype-14, H1-HeLa cells
Experimental: (§2) In this cell protection assay, the ability of compounds to protect cells against HRV infection was measured by the XTT dye reduction method, which is described in Weislow et al., J. Natl. Cancer Inst. 1989, vol. 81, 577-586.
(§3) H1-HeLa cells were infected with HRV-14 at a multiplicity of infection (m.o.i.) of 0.13 (virus particles/cell) or mock-infected with medium only. Infected or mock-infected cells were resuspended at 8×10^5 cells per mL, and incubated with appropriate concentrations of the compounds to be tested. Two days later, XTT/PMS was added to test plates and the amount of formazan produced was quantified spectrophotometrically at 450/650 nm. The EC50 value was calculated as the concentration of compound that increased the percentage of formazan production in compound-treated, virus-infected cells to 50% of that produced by compound-free, mock-infected cells. The 50% cytotoxic dose (CC50) was calculated as the concentration of compound that decreased the percentage of formazan produced in compound-treated, mock-infected cells to 50% of that produced by compound-free, mock-infected cells. The therapeutic index (TI) was calculated by dividing the CC50 value by the EC50 value.
(§4) All strains of human rhinovirus (HRV) for use in this assay were purchased from American Type Culture Collection (ATCC), except for HRV serotype-14 (produced from the infectious cDNA clone constructed by Dr. Robert Rueckert, Institute for Molecular Virology, University of Wisconsin, Madison, Wis.). HRV stocks were propagated and viral assays were performed in H1-HeLa cells (ATCC). Cells were grown in minimal essential medium with 10% fetal bovine serum, available from Life Technologies (Gaithersburg, Md.).
(§5) The compounds were tested against control compounds WIN 51711, WIN 52084, and WIN 54954 (obtained from Sterling-Winthrop Pharmaceuticals), Pirodavir (obtained from Janssen Pharmaceuticals), and Pleconaril (prepared according to the method described in Diana et al., J. Med. Chem 1995, vol. 38, 1355). Antiviral data obtained for the test compounds are shown in Tables 1 and 3, where all data are for HRV serotype-14 unless otherwise noted in parentheses.

[3] = tested on: HRV (2); assay: Antirhinoviral H1-HeLa cell culture assay, HRV serotype 2; type: cell-based, human rhinovirus; settings: Human rhinovirus sp., H1-HeLa, H1-HeLa cells, XTT
Experimental: as §2, §3, §4, §5

[4] = tested on: HRV (1A); assay: Antirhinoviral H1-HeLa cell culture assay, HRV serotype 1A; type: cell-based; settings: Human rhinovirus sp., H1-HeLa cells, XTT
Experimental: as §2, §3, §4, §5

[5] = tested on: HRV (89); assay: Antirhinoviral H1-HeLa cell culture assay, HRV serotype 89; type: cell-based, human rhinovirus; settings: Human rhinovirus sp., H1-HeLa cells, XTT
Experimental: as §2, §3, §4, §5

[6] = tested on: HRV (16); assay: Antirhinoviral H1-HeLa cell culture assay, HRV serotype 16; type: cell-based; settings: Human rhinovirus sp., H1-HeLa cells, XTT
Experimental: as §2, §3, §4
(§6) The compounds were tested against control compounds WIN 51711, WIN 52084, and WIN 54954 (obtained from Sterling-Winthrop Pharmaceuticals), Pirodavir (obtained from Janssen Pharmaceuticals), and Pleconaril (prepared according to the method described in Diana et al., J. Med. Chem 1995, vol. 38, 1355). […]

[7] = tested on: HRV (39); assay: Antirhinoviral H1-HeLa cell culture assay, HRV serotype 39; type: cell-based, human rhinovirus; settings: Human rhinovirus sp., H1-HeLa cells, XTT
Experimental: as §2, §3, §4, §6

[8] = tested on: HRV (10); assay: Antirhinoviral H1-HeLa cell culture assay, HRV serotype 10; type: cell-based, human rhinovirus; settings: Human rhinovirus sp., H1-HeLa, H1-HeLa cells, XTT
Experimental: as §2, §3, §4, §5

[9] = tested on: HRV (3); assay: Antirhinoviral H1-HeLa cell culture assay, HRV serotype 3; type: cell-based, human rhinovirus; settings: Human rhinovirus sp., H1-HeLa, H1-HeLa cells, XTT
Experimental: as §2, §3, §4, §6

[10] = tested on: HRV (9); assay: Antirhinoviral H1-HeLa cell culture assay, HRV serotype 9; type: cell-based, human rhinovirus; settings: Human rhinovirus sp., H1-HeLa cells, XTT
Experimental: as §2, §3, §4, §6

[11] = tested on: HRV (12); assay: Antirhinoviral H1-HeLa cell culture assay, HRV serotype 12; type: cell-based; settings: Human rhinovirus sp., H1-HeLa cells, XTT
Experimental: as §2
as §3, with “value. […]” for “value.”

[12] = tested on: HRV (13); assay: Antirhinoviral H1-HeLa cell culture assay, HRV serotype 13; type: cell-based, human rhinovirus; settings: Human rhinovirus sp., H1-HeLa, H1-HeLa cells, XTT
Experimental: as §2, §3, §4, §6

[13] = tested on: HRV (17); assay: Antirhinoviral H1-HeLa cell culture assay, HRV serotype 17; type: cell-based, human rhinovirus; settings: Human rhinovirus sp., H1-HeLa cells, XTT
Experimental: as §2, §3, §4, §6

[14] = tested on: HRV (25); assay: Antirhinoviral H1-HeLa cell culture assay, HRV serotype 25; type: cell-based; settings: Human rhinovirus sp., H1-HeLa cells, XTT
Experimental: as §2
as §3, with “value. […]” for “value.”

[15] = tested on: HRV (30); assay: Antirhinoviral H1-HeLa cell culture assay, HRV serotype 30; type: cell-based; settings: Human rhinovirus sp., H1-HeLa cells, XTT
Experimental: as §2
as §3, with “value. […]” for “value.”

[16] = tested on: HRV (38); assay: Antirhinoviral H1-HeLa cell culture assay, HRV serotype 38; type: cell-based; settings: Human rhinovirus sp., H1-HeLa cells, XTT
Experimental: as §2
as §3, with “value. […]” for “value.”

[17] = tested on: HRV (87); assay: Antirhinoviral H1-HeLa cell culture assay, HRV serotype 87; type: cell-based; settings: Human rhinovirus sp., H1-HeLa cells, XTT
Experimental: as §2
as §3, with “value. […]” for “value.”

[18] = molecular target: T2, rhinovirus 3C protease, serotype 16 (Human rhinovirus 16, UniProt Q82122); assay: Inhibition of rhinovirus 3C protease (FRET assay), serotype 16; type: biochemical; settings: Rhinovirus Serotype (16) 3C protease; read-out: kobs/I
T2 construct: Recombinant rhinovirus 3C proteases; made in house
T2 sequence (Q82122 1511-1693): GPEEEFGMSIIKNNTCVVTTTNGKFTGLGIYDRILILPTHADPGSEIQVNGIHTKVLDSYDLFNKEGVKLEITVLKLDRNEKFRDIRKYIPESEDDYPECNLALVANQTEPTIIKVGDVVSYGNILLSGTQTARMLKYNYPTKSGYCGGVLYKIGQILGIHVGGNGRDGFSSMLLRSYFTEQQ
Experimental: Stock solutions (50 mM, in DMSO) of various compounds were prepared; dilutions were in the same solvent. Recombinant rhinovirus 3C proteases (see Birch et al., “Purification of recombinant human rhinovirus 14 3C protease expressed in Escherichia coli,” Protein Expr. Pur. 1995, 6(5), 609-618) from serotypes 14, 16, and 2 were prepared by the following standard chromatographic procedures: (1) ion exchange using Q Sepharose Fast Flow from Pharmacia; (2) affinity chromatography using Affi-Gel Blue from Biorad; and (3) sizing using Sephadex G-100 from Pharmacia. Each assay sample contained 2% DMSO, 50 mM tris pH 7.6, 1 mM EDTA, a test compound at the indicated concentration, approximately 1 μM substrate, and 50-100 nM protease. The kobs/I values were obtained from reactions initiated by addition of enzyme rather than substrate. RVP activity was measured in the fluorescence resonance energy transfer assay. The substrate was (N-terminal) DABCYL-(Gly-Arg-Ala-Val-Phe-Gln-Gly-Pro-Val-Gly)-EDANS. In the uncleaved peptide, the EDANS fluorescence was quenched by the proximal DABCYL moiety. When the peptide was cleaved, the quenching was relieved, and activity was measured as an increase in fluorescence signal. […] The data in the column designated kobs/[I] were measured from progress curves in enzyme start experiments.

[19] = molecular target: T3, rhinovirus 3C protease, serotype 2 (Human rhinovirus 2, UniProt P04936); assay: Inhibition of rhinovirus 3C protease (FRET assay), serotype 2; type: biochemical; settings: Rhinovirus Serotype (2) 3C protease; read-out: kobs/I
T3 construct: Recombinant rhinovirus 3C proteases; made in house
T3 sequence (P04936 1508-1690): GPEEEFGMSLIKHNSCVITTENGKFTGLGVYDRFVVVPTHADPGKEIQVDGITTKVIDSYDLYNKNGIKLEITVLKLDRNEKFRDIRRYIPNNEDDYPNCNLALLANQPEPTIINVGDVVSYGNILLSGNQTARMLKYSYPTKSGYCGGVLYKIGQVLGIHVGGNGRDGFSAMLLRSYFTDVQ
Experimental: as §1

[20] = tested on: H1-HeLa cells; assay: Cytotoxicity in uninfected H1-HeLa cells (anticoxsackieviral assay, XTT); type: cell-based; settings: 50% cytotoxic dose, Table 4
Experimental: The ability of compounds to protect cells against either CAV-21 or CVB-3 infection was measured by the XTT dye reduction method. This method is described in Weislow et al., J. Natl. Cancer Inst. 1989, vol. 81, 577-586. H1-HeLa cells were infected with CAV-21 or CVB-3 at a multiplicity of infection (m.o.i.) of 0.025 or 0.075, respectively, or mock-infected with medium only. H1-HeLa cells were plated at 4×10^4 cells per well in a 96-well plate and incubated with appropriate concentrations of the test compound. One day (CVB-3) or two days (CAV-21) later, XTT/PMS was added to test plates and the amount of formazan produced was quantified spectrophotometrically at 450/650 nm. The EC50 was calculated as the concentration of compound that increased the formazan production in compound-treated, virus-infected cells to 50% of that produced by compound-free, uninfected cells. The 50% cytotoxic dose (CC50) was calculated as the concentration of compound that decreased formazan production in compound-treated, uninfected cells to 50% of that produced in compound-free, uninfected cells. The therapeutic index TI) was calculated by dividing the CC50 by the EC50.

[21] = Table 1, XTT dye reduction, read-out: Cell Protection EC50

CCOC(=O)/C=C/[C@H](C[C@@H]1CCNC1=O)NC(=O)[C@H](Cc1ccc(F)cc1)OC(=O)[C@@H](NC(=O)c1cc(C)on1)C(C)C [Compound C-2, Ethyl-3-{(5′-Methylisoxazole-3′-carbonyl)-L-Val-O-L-(4-F-Phe)-L-((S)-Pyrrol-Ala)}-E-Propenoate]
kinact/KI [1]: 270000 M⁻¹ s⁻¹ | EC50 [2, 21]: 2 nM | EC50 ([2]; Table 3, XTT, read-out: EC50): 2 nM | EC50 [3]: 4 nM | EC50 [4]: 10 nM | EC50 [5]: 4 nM | EC50 [6]: 10 nM | EC50 [7]: 10 nM | EC50 [8]: 20 nM | EC50 [9]: 20 nM | EC50 [10]: 10 nM | EC50 [11]: 40 nM | EC50 [12]: 7 nM | EC50 [13]: 7 nM | EC50 [14]: 70 nM | EC50 [15]: 30 nM | EC50 [16]: 50 nM | EC50 [17]: 20 nM

CCOC(=O)/C=C/[C@H](CCC(N)=O)NC(=O)[C@H](Cc1ccccc1)NC(=O)[C@@H](NC(=O)OCc1ccccc1)C(C)C [Comparison Compound #3, Ethyl-3-(Cbz-L-Val-L-Phe-L-Gln)-E-Propenoate]
kinact/KI [1]: 62500 M⁻¹ s⁻¹ | kinact/KI [18]: 16900 M⁻¹ s⁻¹ | kinact/KI [19]: 8000 M⁻¹ s⁻¹ | EC50 [2, 21]: 380 nM | EC50 ([2]; Table 3, XTT, read-out: EC50): 380 nM | melting point: 240 °C (dec.)

Cc1cc(CCCCCOc2c(Cl)cc(C3=NCCO3)cc2Cl)on1 [WIN 54954]
CC50 [20]: > 100000 nM
